Drawing on US9499502B2, “5-substituted iminothiazines and their mono- and dioxides as BACE inhibitors, compositions, and their use” (Merck Sharp & Dohme Corp., priority 2011, dated 2016), this text covers Ki and inhibition for 48 compounds.

Where two headings read alike, the source gives them in different places.

In assay [1] the target is purified human autoBACE-2 (Homo sapiens (Human), UniProt Q9Y5Z0). The assay can be described thus: BACE-2 Assay (BACE-HTRF assay). The class given is biochemical. Conditions: for inhibition at 10 µM: read-out: inhibition of BACE2 at 10 μM. Here is the method:
Inhibitor IC50s at purified human autoBACE-2 are determined in a time-resolved endpoint proteolysis assay that measures hydrolysis of the QSY7-[…]-Eu-amide FRET peptide substrate (BACE-HTRF assay). […] DMSO is present at 5% final concentration in the assay. Following laser excitation of sample wells at 320 nm, the fluorescence signal at 620 nm is collected for 400 ms following a 50 μs delay on a RUBYstar HTRF plate reader (BMG Labtechnologies). Raw RFU data is normalized to maximum (1.0 nM BACE/DMSO) and minimum (no enzyme/DMSO) RFU values. […] The Ki values are calculated from the IC50 using the Cheng-Prusoff equation.

Assay [2] addresses soluble human BACE1 catalytic domain (Homo sapiens (Human), UniProt P56817). The assay can be described thus: BACE1 HTRF FRET Assay. Conditions: for inhibition at 10 µM: read-out: BACE1 inhibition, % Inh. at 10 μM, at 10 μM; for inhibition at 1 µM: read-out: BACE1 % Inh. at 1 μM, at 1 μM.
The mark [3] stands for this setting: Ki calculated from IC50 using the Cheng-Prusoff equation, read-out: BACE2 Ki.
The mark [4] stands for this setting: read-out: BACE1 Ki, Ki calculated from IC50 using the Cheng-Prusoff equation.

Sequence of purified human autoBACE-2 (Q9Y5Z0 63-473): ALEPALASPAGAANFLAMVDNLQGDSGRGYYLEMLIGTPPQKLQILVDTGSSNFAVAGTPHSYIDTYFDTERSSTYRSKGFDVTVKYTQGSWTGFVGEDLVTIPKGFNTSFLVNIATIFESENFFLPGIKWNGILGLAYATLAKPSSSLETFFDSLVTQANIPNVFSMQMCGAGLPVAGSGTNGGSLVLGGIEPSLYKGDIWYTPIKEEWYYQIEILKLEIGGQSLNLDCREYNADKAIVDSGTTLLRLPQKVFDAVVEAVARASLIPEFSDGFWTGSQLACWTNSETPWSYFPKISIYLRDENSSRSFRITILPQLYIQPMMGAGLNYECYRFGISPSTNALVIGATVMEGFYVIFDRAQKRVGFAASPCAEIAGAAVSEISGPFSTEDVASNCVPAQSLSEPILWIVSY
Sequence of soluble human BACE1 catalytic domain (P56817 75-416): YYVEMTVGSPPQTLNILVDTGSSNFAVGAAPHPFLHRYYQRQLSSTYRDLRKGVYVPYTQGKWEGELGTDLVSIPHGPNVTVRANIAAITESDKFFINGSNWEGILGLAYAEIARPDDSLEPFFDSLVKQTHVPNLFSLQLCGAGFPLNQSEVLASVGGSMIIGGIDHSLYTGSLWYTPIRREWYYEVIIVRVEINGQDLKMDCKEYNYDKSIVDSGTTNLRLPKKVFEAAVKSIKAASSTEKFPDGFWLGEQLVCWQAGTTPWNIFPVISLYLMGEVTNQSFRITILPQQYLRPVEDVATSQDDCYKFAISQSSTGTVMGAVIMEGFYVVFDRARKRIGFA

Take `CC1(C)C(=N)N[C@](C)(c2nc(NC(=O)c3cnc(Br)cn3)ccc2F)CS1(=O)=O` [Example 9ck]: the Ki in assay [1] (setting [3]) was ≤ 10 nM; in assay [2] (setting [4]) it was 21.7 nM.
On to `CC1(C)C(=N)N[C@](C)(c2sc(-c3cccc(C#N)c3)cc2F)CS1(=O)=O` [Example 27aq], for which the Ki was ≤ 20 nM in assay [1] (setting [3]) and 76 nM in assay [2] (read-out: BACE1 Ki).
As to `CC1(C)C(=N)N[C@](C)(c2cc(NC(=O)c3ncc(F)cc3F)cc(F)c2F)CS1(=O)=O` [Example 9ba], the Ki in assay [1] (setting [3]) is 1 nM; in assay [2] (setting [4]) it was 21 nM.
In the case of `COc1ccc(C(=O)Nc2ccc(F)c([C@]3(C)CS(=O)(=O)[C@](C)(C4CCC4)C(=N)N3)c2)nc1` [Example 9dx-b], the Ki in assay [1] (setting [3]) was 101 to 700 nM; in assay [2] (setting [4]) it was 307 nM.
Taken in the same sequence, the figures for `CC1(C)C(=N)N[C@](C)(c2sc(-c3cncc(C#N)c3)cc2Cl)CS1(=O)=O` [Example 23] were < 200 nM and 63 nM.
With `C[C@@]1(c2ccc(F)cc2F)CS(=O)(=O)[C@@](C)(c2cccc(C(F)(F)F)c2)C(=N)N1` [Example 32h-a], the results for the Ki in assay [1] (setting [3]) and in assay [2] (read-out: BACE1 Ki) were 126 nM and 362 nM, respectively.
With `C[C@@]1(c2cccc(OCc3ccccc3)c2)C(=N)N[C@](C)(c2cc(F)ccc2F)CS1(=O)=O` [Example 34d-b], the inhibition at 10 µM stood at 10% in assay [1] and 16% in assay [2].
Taken in the same sequence, the figures for `Cc1nc2ccc(CC3(C)C(=N)N[C@](C)(c4cc(F)ccc4F)CS3(=O)=O)cc2s1` (mixture of isomers) [32b-a and 32b-b] were 1 to 24% and 11%.
On to `CC1(C)C(=N)N[C@](C)(c2cc(NC(=O)c3cocn3)cc(F)c2F)CS1(=O)=O` [Example 9bu], for which the Ki is 5 nM in assay [1] (setting [3]) and 42 nM in assay [2] (setting [4]).
Regarding `C[C@@]1(c2cc(NC(=O)c3ccc(C(F)(F)F)cn3)ccc2F)CS(=O)(=O)[C@](C)(CC2CC2)C(=N)N1` [Example 9dl-b], the Ki was 11 to 100 nM in assay [1] (setting [3]) and 33.2 nM in assay [2] (setting [4]).
With `COc1cccc2cc(-c3cc(Cl)c([C@]4(C)CS(=O)(=O)[C@@](C)(CC5CCOCC5)C(=N)N4)s3)[nH]c12` [Example 27bx], the Ki was ≤ 10 nM in assay [1] (setting [3]) and 18 nM in assay [2] (read-out: BACE1 Ki).
`C[C@@]1(c2cccc(F)c2)C(=N)N[C@](C)(c2cc(NC(=O)c3ccc(F)cn3)ccc2F)CS1(=O)=O` [Example 9da-b]: the Ki in assay [1] (setting [3]) was 11 to 100 nM; in assay [2] (setting [4]), 198 nM.
Turning to `CC1(C)C(=N)N[C@](C)(c2sc(-c3cc(F)cc(-c4cnco4)c3)cc2F)CS1(=O)=O` [Example 27at], the Ki in assay [1] (setting [3]) was ≤ 20 nM; in assay [2] (read-out: BACE1 Ki), 26 nM.
On to `COc1ccc(C(=O)Nc2ccc(F)c([C@]3(C)CS(=O)(=O)C(C)(C)C(=N)N3)c2F)nc1` [Example 9y], for which the Ki is 11 nM in assay [1] (setting [3]) and 44 nM in assay [2] (setting [4]).
For `CC1(C)C(=N)N[C@](C)(c2cc(NC(=O)c3ccc(C(F)(F)F)cn3)cc(Cl)c2F)CS1(=O)=O` [Example 9v], the Ki in assay [1] (setting [3]) is 13 nM; in assay [2] (setting [4]), 9.6 nM.
Turning to `C[C@@]1(c2ccc(F)cc2)C(=N)N[C@](C)(c2cc(NC(=O)c3ccc(F)cn3)ccc2F)CS1(=O)=O` [Example 9df-b], the Ki in assay [1] was 11 to 100 nM; in assay [2] (setting [4]), 165 nM.
Take `C[C@@]1(c2sc(-c3cccc(C#N)c3)cc2F)CS(=O)(=O)[C@@](C)(c2ccccc2F)C(=N)N1` [Example 27bs-a]: the Ki in assay [1] (setting [3]) was 9 nM; in assay [2] (read-out: BACE1 Ki) it was 68.3 nM.
`COc1ccc(C(=O)Nc2ccc(F)c([C@]3(C)CS(=O)(=O)[C@](C)(CC(F)(F)F)C(=N)N3)c2)nc1` [Example 9dq-b]: the Ki in assay [1] (setting [3]) is 11 to 100 nM; in assay [2] (setting [4]) it was 54.3 nM.
The matching figures for `CC1(C)C(=N)N[C@](C)(c2c(F)c(F)cc(NC(=O)c3ccc(C(F)(F)F)cn3)c2F)CS1(=O)=O` [Example 9ad]: 41 nM and 7.9 nM.
The matching figures for `COc1cnc(C(=O)Nc2ccc(F)c([C@]3(C)CS(=O)(=O)[C@](C)(c4ccc(F)cc4)C(=N)N3)c2)cn1` [Example 9dg-b]: 101 to 700 nM and 186 nM.
Regarding `COc1cnc(C(=O)Nc2cc(F)c(F)c([C@]3(C)CS(=O)(=O)C(C)(C)C(=N)N3)c2F)cn1` [Example 9ae], the results for the Ki in assay [1] (setting [3]) and in assay [2] (setting [4]) were 69 nM and 45.4 nM, respectively.
`CC1(C)C(=N)N[C@](C)(c2cc(Nc3noc4cc(F)cnc34)ccc2F)CS1(=O)=O` [Example 30b]: the Ki in assay [1] (setting [3]) was 5 nM; in assay [2] (read-out: BACE1 Ki), 22 nM.
Take `C[C@@]1(C2CCC2)C(=N)N[C@](C)(c2cc(NC(=O)c3ccc(C(F)(F)F)cn3)ccc2F)CS1(=O)=O` [Example 9dz-b]: the Ki in assay [1] (setting [3]) was 101 to 700 nM; in assay [2] (setting [4]) it was 123 nM.
Regarding `C[C@@]1(C2CCC2)C(=N)N[C@](C)(c2cc(N)ccc2F)CS1(=O)=O` [Entry 40], the inhibition at 10 µM is 29 to 47% in assay [1] and 20% in assay [2].
Turning to `CC1(C)C(=N)N[C@](C)(c2cc(-c3cc(F)cc(-c4nnco4)c3)ccc2F)CS1(=O)=O` [Example 16a], the Ki in assay [1] (setting [3]) is 445 nM. In assay [2], the inhibition at 1 µM stood at 43%.
Regarding `COc1cccc([C@]2(C)C(=N)N[C@](C)(c3cc(F)ccc3F)CS2(=O)=O)c1` [Example 32e-b], the inhibition at 10 µM was 1 to 24% in assay [1] and 22% in assay [2].
For the compound `C=CC[C@]1(C)C(=N)N[C@](C)(c2cc(NC(=O)c3cnc(OC)cn3)ccc2F)CS1(=O)=O` [Example 9dm-b], the Ki is 11 to 100 nM in assay [1] (setting [3]) and 33.6 nM in assay [2] (setting [4]).
With `CC1(C)C(=N)N[C@](C)(c2cc(NC(=O)C3CCC3(F)F)ccc2F)CS1(=O)=O` (stereo partly drawn) [Example 9aw], the Ki in assay [1] (setting [3]) was 47 nM; in assay [2] (setting [4]) it was 299 nM.
`CC1(C)C(=N)N[C@](C)(c2cc(NC(=O)c3ccc(C#N)cn3)cc(F)c2F)CS1(=O)=O` [Example 9bg]: the Ki is 3 nM in assay [1] (setting [3]) and 6 nM in assay [2] (setting [4]).
For the compound `COc1cnc(C(=O)Nc2ccc(F)c([C@]3(C)CS(=O)(=O)[C@](C)(C(C)C)C(=N)N3)c2)cn1` [Example 9ec-b], the Ki in assay [1] (setting [3]) was 101 to 700 nM; in assay [2] (setting [4]), 522 nM.
The matching figures for `COCC(=O)Nc1cc(F)c(F)c([C@]2(C)CS(=O)(=O)C(C)(C)C(=N)N2)c1` [Example 9bk]: 12 nM and 112 nM.
In the case of `CC1(C)C(=N)N[C@](C)(c2nc(NC(=O)c3ccc(Cl)cn3)ccc2F)CS1(=O)=O` [Example 9cc], the Ki in assay [1] (setting [3]) was ≤ 10 nM; in assay [2] (setting [4]), 13.7 nM.
On to `CC1(C)C(=N)N[C@](C)(c2cc(N)cc(F)c2F)CS1(=O)=O` [Example 2A-5], for which the Ki in assay [1] (setting [3]) was 500 to 10000 nM. Further, in assay [2], the inhibition at 10 µM was 51%.
Turning to `CC1(C)C(=N)N[C@](C)(c2cc(-c3cccc(C#N)c3)ccc2F)CS1(=O)=O` [compound 10], the Ki in assay [1] (setting [3]) is < 200 nM. The inhibition at 1 µM in assay [2] turned out to be 36%.
On to `CC1(C)C(=N)N[C@](C)(c2sc(-c3cccc(-c4ncon4)c3)cc2F)CS1(=O)=O` [Example 27ao], for which the Ki in assay [1] (setting [3]) was ≤ 20 nM; in assay [2] (read-out: BACE1 Ki) it was 100 nM.
On to `COc1ccccc1Nc1ccc(F)c(C2(C)CS(=O)(=O)C(C)(C)C(=N)N2)n1` (stereo not drawn) [Example 30a], for which the Ki in assay [1] (setting [3]) was 517 nM; in assay [2] (BACE1 Ki (nM)), 5280 nM.
Consider `CC1(C)C(=N)N[C@](C)(c2sc(-c3cncc(Cl)c3)cc2Cl)CS1(=O)=O` [Example 27l], for which the Ki is ≤ 10 nM in assay [1] (setting [3]) and 92.2 nM in assay [2] (read-out: BACE1 Ki).
With `C[C@@]1(c2cccc(C(F)(F)F)c2)C(=N)N[C@](C)(c2cc(N)ccc2F)CS1(=O)=O` [Entry 69], the inhibition at 10 µM in assay [1] was 29 to 47%; in assay [2] it was 17%.
Consider `CC1(C)C(=N)N[C@](C)(c2sc(C(=O)Nc3cccc(Cl)n3)cc2Cl)CS1(=O)=O` [Example 20], for which the Ki in assay [1] (setting [3]) is 8 nM; in assay [2] (setting [4]) it was 26.9 nM.
Taken in the same sequence, the figures for `COCC(=O)Nc1ccc(F)c([C@]2(C)CS(=O)(=O)C(C)(C)C(=N)N2)c1` [Example 9at] were 14 nM and 60 nM.
Turning to `COc1cnc(C(=O)Nc2ccc(F)c([C@]3(C)CS(=O)(=O)C(C)(C)C(=N)N3)c2F)cn1` [Example 9z], the Ki in assay [1] (setting [3]) was 59 nM; in assay [2] (setting [4]), 52.9 nM.
Taken in the same sequence, the figures for `C[C@@]1(C2CCC2)C(=N)N[C@](C)(c2cc(NC(=O)c3ccc(F)cn3)ccc2F)CS1(=O)=O` [Example 9dv-b] were 11 to 100 nM and 304 nM.
On to `COc1ccc(C(=O)Nc2ccc(F)c([C@]3(C)CS(=O)(=O)[C@](C)(C(C)C)C(=N)N3)c2)nc1` [Example 9eb-b], for which the Ki was 101 to 700 nM in assay [1] (setting [3]) and 257 nM in assay [2] (setting [4]).
The matching figures for `C[C@@]1(c2cc(NC(=O)c3ccc(C(F)(F)F)cn3)ccc2F)CS(=O)(=O)[C@@](C)(c2ccccn2)C(=N)N1` [Example 9cz-a]: 11 to 100 nM and 6 nM.
Taken in the same sequence, the figures for `COc1cnc(C(=O)Nc2ccc(F)c([C@]3(C)CS(=O)(=O)[C@](C)(C4CCC4)C(=N)N3)c2)cn1` [Example 9dy-b] were 101 to 700 nM and 499 nM.
Taken in the same sequence, the figures for `CC(F)(F)C(=O)Nc1ccc(F)c([C@]2(C)CS(=O)(=O)C(C)(C)C(=N)N2)c1` [Example 9ai] were 18 nM and 82 nM.
For `COc1cnc(C(=O)Nc2ccc(F)c([C@]3(C)CS(=O)(=O)[C@@](C)(C(C)C)C(=N)N3)c2)cn1` [Example 9ec-a], the figures for the Ki in assay [1] (setting [3]) and in assay [2] (setting [4]) were 11 to 100 nM and 14.9 nM, respectively.
As to `Cc1nnc(C(=O)Nc2ccc(F)c([C@]3(C)CS(=O)(=O)C(C)(C)C(=N)N3)c2)o1` [Example 9i], the Ki in assay [1] (setting [3]) was 49 nM; in assay [2] (setting [4]), 185 nM.
